From US10150772B2, “Crystalline forms of PARP inhibitors” (priority 2014, dated 2018)
“Also recorded” adds a separate entry of the source. Counter-ions that a name gives are not always drawn. Like-named read-outs stand apart in the source and are kept apart here.

Experiments:
[1] = type: physicochemical; design: DSC: unit not given beside the values; conditions: 40° C. and 75% RH; for Stability to the test conditions (in words): 28 day test period
Method: Identity, Assay, and Purity by HPLC
Testing was performed on a calibrated and validated Agilent 1200 Rapid Resolution High Performance Liquid Chromatography (HPLC) system designated LC-0430-AD or LC-418-1D. The system comprises a binary SL pump, degasser, high performance autosampler SL with a fraction collector, thermostated column compartment with a 2 valve column switcher, and a DAD SL detector. All standard solutions and samples were prepared in Class A glass volumetric flasks and were placed in autosampler vials. Standard weighings were done using a calibrated Mettler analytical balance. The sample preparations were centrifuged using an Eppendorf microcentrifuge. The primary chromatography data was acquired and integrated using Empower 2 software. Microsoft Office Excel 2003 was used for the calculation of results.
Solid State Stability of Salts at 40° C. and 75% Humidity:
Samples of the form to be studied (15-20 mg) were weighed into standard 1.5 mL HPLC vials (32×11.6 mm) and stored uncapped for 0, 7, 14 and 28 days in a 40° C. and 75% RH stability chamber. Samples were removed on the indicated day and capped. Measurements of XRPD, DSC, TGA and HPLC Identity by Purity and Assay measurements were completed on each time point sample.

[2] = Estimation of water solubility; type: physicochemical; conditions: visual inspection, 10 mg sample
Method: Estimation of Water Solubility: Ten mg portions of the salt forms to be studied were weighed into a standard 1.5 mL HPLC vial (32×11.6 mm). […] An estimation of solubility was based on the volume of water necessary to dissolve the known weight of sample.

[3] = Dynamic vapor sorption (DVS), water sorption; type: physicochemical; conditions: DVS, 25° C.; for Total uptake (moisture): entire RH range
Method: Dynamic Vapor Sorption (DVS):
DVS experiments have been carried out using the DVS-HT instrument (Surface Measurement Systems, London, UK). This instrument measures the uptake and loss of vapor gravimetrically using a recording ultra-microbalance with a mass resolution of ±0.1 μg. The vapor partial pressure (±1.0%) around the sample is controlled by mixing saturated and dry carrier gas streams using electronic mass flow controllers. The desired temperature is maintained at ±0.1° C. The samples (1-10 mg) were placed into the DVS-HT and DVS-1 instruments at the desired temperature.
The sample was loaded and unloaded at 40% RH and 25° C. (typical room conditions). A moisture sorption isotherm was performed as outlined below (2 scans giving 1 complete cycle). The software uses a least squares minimization procedure together with a model of the mass relaxation, to predict an asymptotic value. The measured mass equilibration value must be within 2% of that predicted by the software before proceeding to the next % RH value. The minimum equilibration time was set to 1 hour and the maximum to 4 hours.

COc1cccc2[nH]c3c4c(c5c(c3c12)C(=O)N(CN1CCN(C)CC1)C5=O)CCC4.O=C1CC[C@@H](C(=O)O)N1
COMPOUND A Assay ([1]; day 0): 65.5%
COMPOUND B Assay ([1]; day 0): 0.6%
DSC ([1]; day 0): 198.2
HPLC Purity ([1]; day 0): 98.6%
TGA ([1]; day 0): 0.49%
COMPOUND A Assay ([1]; day 7): 71.4%
COMPOUND B Assay ([1]; day 7): 0.6%
DSC ([1]; day 7): 199.0
HPLC Purity ([1]; day 7): 98.7%
TGA ([1]; day 7): 0.54%
XRPD ([1]; day 7): No change
COMPOUND A Assay ([1]; day 14): 60.2%
COMPOUND B Assay ([1]; day 14): 0.8%
DSC ([1]; day 14): 198.3
HPLC Purity ([1]; day 14): 98.2%
TGA ([1]; day 14): 0.64%
XRPD ([1]; day 14): No change
COMPOUND A Assay ([1]; day 28): 64.0%
COMPOUND B Assay ([1]; day 28): 1.2%
DSC ([1]; day 28): 198.4
HPLC Purity ([1]; day 28): 97.2%
XRPD ([1]; day 28): No change

COc1cccc2[nH]c3c4c(c5c(c3c12)C(=O)N(CN1CCN(C)CC1)C5=O)CCC4 [39-1(2)]
Estimated Water Solubility [2]: ~25 mg/mL

COc1cccc2[nH]c3c4c(c5c(c3c12)C(=O)N(CN1CCN(C)CC1)C5=O)CCC4 [39-2(2)]
Estimated Water Solubility [2]: >100 mg/mL

COc1cccc2[nH]c3c4c(c5c(c3c12)C(=O)N(CN1CCN(C)CC1)C5=O)CCC4 [39-3(2)]
Estimated Water Solubility [2]: >100 mg/mL

COc1cccc2[nH]c3c4c(c5c(c3c12)C(=O)N(CN1CCN(C)CC1)C5=O)CCC4 [39-5(2)]
Estimated Water Solubility [2]: >100 mg/mL

COc1cccc2[nH]c3c4c(c5c(c3c12)C(=O)N(CN1CCN(C)CC1)C5=O)CCC4 [Acetate Salt, Form A1.5]
DVS sorption behaviour (in words) [3]: steady weight loss during the drying curves with no equilibration reached
Stability to the test conditions (in words) [1]: changes throughout the 28 day test period
HPLC Purity ([1]; day 0): 99.7%
TGA ([1]; day 0): 21.5%
COMPOUND A Assay ([1]; day 0, HPLC): 78.1%
COMPOUND B Assay ([1]; day 0, HPLC): 0.2%
HPLC Purity ([1]; day 7): 99.6%
TGA ([1]; day 7): 20.0%
XRPD ([1]; day 7): Shows hydrate
COMPOUND A Assay ([1]; day 7, HPLC): 70.2%
COMPOUND B Assay ([1]; day 7, HPLC): 0.1%
HPLC Purity ([1]; day 14): 99.5%
TGA ([1]; day 14): 16.1%
XRPD ([1]; day 14): Shows hydrate
COMPOUND A Assay ([1]; day 14, HPLC): 84.2%
COMPOUND B Assay ([1]; day 14, HPLC): 0.2%
HPLC Purity ([1]; day 28): 99.6%
TGA ([1]; day 28): 9.6%
XRPD ([1]; day 28): Shows hydrate,
COMPOUND A Assay ([1]; day 28, HPLC): 90.9%
COMPOUND B Assay ([1]; day 28, HPLC): 0.3%

COc1cccc2[nH]c3c4c(c5c(c3c12)C(=O)N(CN1CCN(C)CC1)C5=O)CCC4 [Glycolate Salt Hydrate, Form A1]
DVS sorption behaviour (in words) [3]: surface adsorption with limited bulk absorption throughout the entire RH range
Total uptake in moisture at 90% RH ([3]; 90% RH): ~3.5%
Stability to the test conditions (in words) [1]: fairly stable to the test conditions; also recorded: generated the least amount of Compound B
HPLC Purity ([1]; day 0): 99.8%
TGA ([1]; day 0): 2.1%
COMPOUND A Assay ([1]; day 0, HPLC): 69.9%
COMPOUND B Assay ([1]; day 0, HPLC): 0.1%
HPLC Purity ([1]; day 7): 99.6%
TGA ([1]; day 7): 2.3%
XRPD ([1]; day 7): No change
COMPOUND A Assay ([1]; day 7, HPLC): 68.4%
COMPOUND B Assay ([1]; day 7, HPLC): 0.1%
HPLC Purity ([1]; day 14): 99.7%
TGA ([1]; day 14): 2.6%
XRPD ([1]; day 14): No change
COMPOUND A Assay ([1]; day 14, HPLC): 73.2%
COMPOUND B Assay ([1]; day 14, HPLC): 0.2%
HPLC Purity ([1]; day 28): 99.5%
TGA ([1]; day 28): 3.5%
XRPD ([1]; day 28): No change
COMPOUND A Assay ([1]; day 28, HPLC): 66.8%
COMPOUND B Assay ([1]; day 28, HPLC): 0.6%

COc1cccc2[nH]c3c4c(c5c(c3c12)C(=O)N(CN1CCN(C)CC1)C5=O)CCC4 [Hydrochloride Salt, Form A]
DVS sorption behaviour (in words) [3]: surface adsorption with limited bulk absorption throughout the entire RH range
Total uptake (moisture) [3]: ~2.25%
Stability to the test conditions (in words) [1]: relatively constant XRPD pattern
Compound A Assay value, change (in words) ([1]; after 28 days): decreasing to nearly half

COc1cccc2[nH]c3c4c(c5c(c3c12)C(=O)N(CN1CCN(C)CC1)C5=O)CCC4 [L-Malate Salt, Form A1]
DVS sorption behaviour (in words) [3]: very little water absorption during the first cycle from 40% RH to 70% RH
Total uptake (moisture) [3]: ~2%
Stability to the test conditions (in words) [1]: stable to the test conditions
HPLC Purity ([1]; day 0): 99.5%
TGA ([1]; day 0): 0.1%
COMPOUND A Assay ([1]; day 0, HPLC): 69.9%
COMPOUND B Assay ([1]; day 0, HPLC): 0.2%
HPLC Purity ([1]; day 7): 99.3%
TGA ([1]; day 7): 0.2%
XRPD ([1]; day 7): No change
COMPOUND A Assay ([1]; day 7, HPLC): 71.8%
COMPOUND B Assay ([1]; day 7, HPLC): 0.4%
HPLC Purity ([1]; day 14): 98.8%
TGA ([1]; day 14): 0.8%
XRPD ([1]; day 14): No change
COMPOUND A Assay ([1]; day 14, HPLC): 72.0%
COMPOUND B Assay ([1]; day 14, HPLC): 0.5%
HPLC Purity ([1]; day 28): 98.4%
TGA ([1]; day 28): 0.3%
XRPD ([1]; day 28): No change
COMPOUND A Assay ([1]; day 28, HPLC): 71.7%
COMPOUND B Assay ([1]; day 28, HPLC): 0.8%

COc1cccc2[nH]c3c4c(c5c(c3c12)C(=O)N(CN1CCN(C)CC1)C5=O)CCC4 [Sample 13-3]
Estimated Water Solubility [2]: 50 to 100 mg/mL

COc1cccc2[nH]c3c4c(c5c(c3c12)C(=O)N(CN1CCN(C)CC1)C5=O)CCC4 [Sample 13-4]
Estimated Water Solubility [2]: <10 mg/mL

COc1cccc2[nH]c3c4c(c5c(c3c12)C(=O)N(CN1CCN(C)CC1)C5=O)CCC4 [Sample 13-5]
Estimated Water Solubility [2]: <10 mg/mL

COc1cccc2[nH]c3c4c(c5c(c3c12)C(=O)N(CN1CCN(C)CC1)C5=O)CCC4 [Sample 13-6]
Estimated Water Solubility [2]: >100 mg/mL

COc1cccc2[nH]c3c4c(c5c(c3c12)C(=O)N(CN1CCN(C)CC1)C5=O)CCC4 [Sample 13-7]
Estimated Water Solubility [2]: 50 to 100 mg/mL

COc1cccc2[nH]c3c4c(c5c(c3c12)C(=O)N(CN1CCN(C)CC1)C5=O)CCC4 [Sample 13-8]
Estimated Water Solubility [2]: >100 mg/mL

COc1cccc2[nH]c3c4c(c5c(c3c12)C(=O)N(CN1CCN(C)CC1)C5=O)CCC4 [Sample 13-9]
Estimated Water Solubility [2]: <10 mg/mL

COc1cccc2[nH]c3c4c(c5c(c3c12)C(=O)N(CN1CCN(C)CC1)C5=O)CCC4 [Sample 13-10]
Estimated Water Solubility [2]: 10 to 20 mg/mL

COc1cccc2[nH]c3c4c(c5c(c3c12)C(=O)N(CN1CCN(C)CC1)C5=O)CCC4 [Sample 30-1]
Estimated Water Solubility [2]: ~20 mg/mL

COc1cccc2[nH]c3c4c(c5c(c3c12)C(=O)N(CN1CCN(C)CC1)C5=O)CCC4 [Sample 30-2]
Estimated Water Solubility [2]: >100 mg/mL

COc1cccc2[nH]c3c4c(c5c(c3c12)C(=O)N(CN1CCN(C)CC1)C5=O)CCC4 [Sample 30-3]
Estimated Water Solubility [2]: >100 mg/mL

COc1cccc2[nH]c3c4c(c5c(c3c12)C(=O)N(CN1CCN(C)CC1)C5=O)CCC4 [Sample 30-4]
Estimated Water Solubility [2]: >100 mg/mL

COc1cccc2[nH]c3c4c(c5c(c3c12)C(=O)N(CN1CCN(C)CC1)C5=O)CCC4 [Sample 30-5]
Estimated Water Solubility [2]: ~25 mg/mL

COc1cccc2[nH]c3c4c(c5c(c3c12)C(=O)N(CN1CCN(C)CC1)C5=O)CCC4 [Sample 31-1]
Estimated Water Solubility [2]: ~25 mg/mL

COc1cccc2[nH]c3c4c(c5c(c3c12)C(=O)N(CN1CCN(C)CC1)C5=O)CCC4 [Sample 31-2]
Estimated Water Solubility [2]: >100 mg/mL

COc1cccc2[nH]c3c4c(c5c(c3c12)C(=O)N(CN1CCN(C)CC1)C5=O)CCC4 [Sample 31-3]
Estimated Water Solubility [2]: >100 mg/mL

COc1cccc2[nH]c3c4c(c5c(c3c12)C(=O)N(CN1CCN(C)CC1)C5=O)CCC4 [Sample 31-4]
Estimated Water Solubility [2]: >100 mg/mL

COc1cccc2[nH]c3c4c(c5c(c3c12)C(=O)N(CN1CCN(C)CC1)C5=O)CCC4 [Sample 31-5]
Estimated Water Solubility [2]: ~25 mg/mL

COc1cccc2[nH]c3c4c(c5c(c3c12)C(=O)N(CN1CCN(C)CC1)C5=O)CCC4 [Sample 39-1]
Estimated Water Solubility [2]: ~50 mg/mL

COc1cccc2[nH]c3c4c(c5c(c3c12)C(=O)N(CN1CCN(C)CC1)C5=O)CCC4 [Sample 39-2]
Estimated Water Solubility [2]: <10 mg/mL

COc1cccc2[nH]c3c4c(c5c(c3c12)C(=O)N(CN1CCN(C)CC1)C5=O)CCC4 [Sample 39-3]
Estimated Water Solubility [2]: >100 mg/mL

COc1cccc2[nH]c3c4c(c5c(c3c12)C(=O)N(CN1CCN(C)CC1)C5=O)CCC4 [Sample 39-4]
Estimated Water Solubility [2]: >100 mg/mL

COc1cccc2[nH]c3c4c(c5c(c3c12)C(=O)N(CN1CCN(C)CC1)C5=O)CCC4 [Sample 39-5]
Estimated Water Solubility [2]: >100 mg/mL
